Measured values published in patent EP1015459B9 (ABBOTT LABORATORIES, priority 1997, dated 1999).

Test system: human mixed lymphocyte reaction (MLR)
Assay: human mixed lymphocyte reaction (MLR) assay
Type: cell-based
Settings: immunosuppressant activity, read-out: Human MLR IC50 ± S.E.M.
Procedure: The immunosuppressant activity of the compounds of the present invention was determined using the human mixed lymphocyte reaction (MLR) assay described by Kino, T. et al. in Transplantation Proceedings, XIX(5):36-39. Suppl. 6 (1987). […]

For `CO[C@H]1C[C@@H]2CC[C@@H](C)[C@@](O)(O2)C(=O)C(=O)N2CCCC[C@H]2C(=O)O[C@H]([C@H](C)C[C@@H]2CC[C@@H](O)[C@H](OC)C2)CC(=O)[C@H](C)/C=C(\C)[C@@H](O)[C@@H](OC)C(=O)[C@H](C)C[C@H](C)/C=C/C=C/C=C/1C` [Rapamycin, reference compound], the IC50 was 0.91 ± 0.36 nM.
